Where “and” joins values, the source holds several entries; their conditions need not be identical. Equal values may be shown once.
Biological target: T1, c-MET (purified GST fusion protein containing the Met kinase domain) (Homo sapiens, UniProt P08581)
T1 construct: Purified GST fusion protein containing the Met kinase domain, Sugen, Inc
Assay: Met transphosphorylation assay (ELISA, poly(Glu,Tyr) 4:1 substrate)
Type: biochemical
Details: purified GST-Met kinase domain 10 ng/well
Procedure: Met Transphosphorylation Assay
This assay is used to measure phosphotyrosine levels on a poly(glutamic acid:tyrosine (4:1)) substrate as a means for identifying agonists/antagonists of met transphosphorylation of the substrate.
• 1. […] PBS, Gibco Catalog #450-1300EB • 4. 50 mM HEPES • 5. […] Purified GST fusion protein containing the Met kinase domain, Sugen, Inc. • 7. TBST Buffer. • 8. 10% aqueous (MilliQue H2O) DMSO. • 9. […] 2× Kinase Dilution Buffer: for 100 ml, mix 10 mL 1 M HEPES at pH 7.5 with 0.4 mL 5% BSA/PBS, 0.2 mL 0.1 M sodium orthovanadate and 1 mL 5M sodium chloride in 88.4 mL dH2O. • 11. 4× ATP Reaction Mixture: for 10 mL, mix 0.4 mL 1 M manganese chloride and 0.02 mL 0.1 M ATP in 9.56 mL dH2O. • 12. 4× Negative Controls Mixture: for 10 mL, mix 0.4 mL 1 M manganese chloride in 9.6 mL dH2O. • 13. […] 500 mM EDTA. • 15. Antibody Dilution Buffer: for 100 mL, mix 10 mL 5% BSA/PBS, 0.5 mL 5% Camation Instant Milk® in PBS and 0.1 mL 0.1 M sodium orthovanadate in 88.4 mL TBST. • 16. Rabbit polyclonal antophosphotyrosine antibody, Sugen, Inc. • 17. Goat anti-rabbit horseradish peroxidase conjugated antibody, Biosource, Inc. • 18. ABTS Solution: for 1 L, mix 19.21 g citric acid, 35.49 g Na2HPO4 and 500 mg ABTS with sufficient dH2O to make 1 L. • 19. ABTS/H2O2: mix 15 mL ABST solution with 2ILL H2O2 five minutes before use. • 20. 0.2 M HCl Procedure: • 1. Coat ELISA plates with 2 μg Poly(Glu-Tyr) in 100 pL PBS, store overnight at 4° C. • 2. Block plate with 150 μL of 5% BSA/PBS for 60 min. • 3. Wash plate twice with PBS, once with 50 mM Hepes buffer pH 7.4. • 4. Add 50 μl of the diluted kinase to all wells. (Purified kinase is diluted with Kinase Dilution Buffer. Final concentration should be 10 ng/well.) • 5. Add 25 μL of the test compound (in 4% DMSO) or DMSO alone (4% in dH2O) for controls to plate. • 6. Incubate the kinase/compound mixture for 15 minutes. • 7. Add 25 μL of 40 mM MnCl2to the negative control wells. • 8. Add 25 μL ATP/MnCl2 mixture to the all other wells (except the negative controls). Incubate for 5 min. • 9. Add 25 μL 500 mM EDTA to stop reaction. • 10. Wash plate 3× with TBST. 11. Add 100 μL rabbit polyclonal anti-Ptyr diluted 1:10,000 in Antibody Dilution Buffer to each well. Incubate, with shaking, at room temperature for one hour. • 12. Wash plate 3× with TBST. • 13. […] Add 100 μL per well and incubate at room temperature, with shaking, for one hour. • 14. Wash plate 1× with PBS. • 15. Add 100 μl of ABTS/H2O2 solution to each well. • 16. If necessary, stop the development reaction with the addition of 100 μl of 0.2M HCl per well. • 17.

T1 sequence (P08581 1078-1345 limits assumed): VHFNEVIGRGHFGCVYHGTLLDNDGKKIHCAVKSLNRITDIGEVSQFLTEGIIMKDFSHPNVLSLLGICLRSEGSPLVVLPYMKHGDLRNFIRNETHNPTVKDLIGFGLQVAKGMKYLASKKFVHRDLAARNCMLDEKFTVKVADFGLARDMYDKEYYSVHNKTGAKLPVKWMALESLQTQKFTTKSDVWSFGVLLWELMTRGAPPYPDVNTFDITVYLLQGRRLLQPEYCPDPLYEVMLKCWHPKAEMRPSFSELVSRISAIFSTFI

| SMILES | IC50 |
| --- | --- |
| Oc1ccc(Cn2cnc3ncc(Br)cc32)cc1 [Example 14, 4-(6-Bromo-imidazo[4,5-b]pyridin-1-ylmethyl)-phenol] | 9600 nM |
| Oc1ccc(Cn2cnc3ncc(-c4cccs4)nc32)cc1 [Example 1, 4-(6-Thiophen-2-yl-imidazo[4,5-b]pyrazin-1-ylmethyl)-phenol] | 150 nM |
| COc1ccc(Cn2cnc3ncc(-c4ccc(F)cc4)nc32)cc1 [Example 2, 6-(4-Fluoro-phenyl)-1-(4-methoxy-benzyl)-1H-imidazo[4,5-b]pyrazine] | 1790 nM |
| Fc1ccc(Cn2nnc3ncc(-c4cc5ccccc5[nH]4)nc32)cc1 [Example 12, 1-(4-Fluoro-benzyl)-6-(1H-indol-2-yl)-1H-[1,2,3]triazolo[4,5-b]pyrazine] | 1150 nM |
| Fc1ccc(Cn2cnc3ncc(-c4cccc(OCCN5CCOCC5)c4)nc32)cc1 [Example 6, 1-(4-Fluoro-benzyl)-6-[3-(2-morpholin-4-yl-ethoxy)-phenyl]-1H-imidazo[4,5-b]pyrazine] | > 20000 nM |
| COc1ccc(Cn2cnc3ncc(Br)cc32)cc1 [Example 13, 6-Bromo-1-(4-methoxy-benzyl)-1H-imidazo[4,5-b]pyridine] | > 20000 nM |
| Fc1ccc(Cn2nnc3ncc(-c4cccc(OCCN5CCOCC5)c4)nc32)cc1 [Example 10, 1-(4-Fluoro-benzyl)-6-[3-(2-morpholin-4-yl-ethoxy)-phenyl]-1H-[1,2,3]triazolo[4,5-b]pyrazine] | 1000 nM |
| Fc1ccc(Cn2cnc3ncc(-c4cccs4)nc32)cc1 [Example 4, 1-(4-Fluoro-benzyl)-6-thiophen-2-yl-1 H-imidazo[4,5-b]pyrazine] | > 20000 nM |
| Fc1ccc(Cn2cnc3ncc(-c4ccc(F)cc4)nc32)cc1 [Example 5, 1-(4-Fluoro-benzyl)-6-(4-fluoro-phenyl)-1H-imidazo[4,5-b]pyrazine] | > 20000 nM |
| Fc1ccc(Cn2nnc3ncc(-c4cccs4)nc32)cc1 [Example 9, 1-(4-Fluoro-benzyl)-6-thiophen-2-yl-1H-[1,2,3]triazolo[4,5-b]pyrazine] | 160 nM |
| Fc1ccc(Cn2nnc3ncc(-c4ccc(OCCN5CCOCC5)cc4)nc32)cc1 [Example 11, 1-(4-Fluoro-benzyl)-6-[4-(2-morpholin-4-yl-ethoxy)-phenyl]-1H-[1,2,3]triazolo[4,5-b]pyrazine] | 170 nM |
| Fc1ccc(Cn2nnc3ncc(Br)nc32)cc1 [Example 8, 6-Bromo-1-(4-fluoro-benzyl)-1H-[1,2,3]triazolo[4,5-b]pyrazine] | 310 nM and 1710 nM |
| Fc1ccc(Cn2cnc3ncc(-c4ccc(OCCN5CCOCC5)cc4)nc32)cc1 [Example 7, 1-(4-Fluoro-benzyl)-6-[4-(2-morpholin-4-yl-ethoxy)-phenyl]-1H-imidazo[4,5-b]pyrazine] | > 20000 nM |

Reference: patent US7250417B2, “Arylmethyl triazolo- and imidazopyrazines as c-Met inhibitors” (Sugen Inc., priority 2003, dated 2007)
